# From article PMC12869404 (Virology, 2020)
# Where no end group is shown, it is not given here.
# System: HIV-1 PSVs
# Test: TZMbl neutralization assay of immunized mouse sera
# Details: animals immunized with mimotopes alone; TZMbl and PBMC assays, Fig. 5
row,Substance,neutralizing responses of sera
1,LPNWFNLSSNLM [4E10 PhD 12–11],"detectable, low titer neutralizing responses"
2,GYWSDYWGMTTH [4E10 PhD 12–7],"detectable, low titer neutralizing responses"

# System: glycan-specific, HIV-1 gp120 NAb, 2G12
# Test: M13 Binding ELISA, assay control NAb 2G12
# Details: control NAb 2G12 coated 1 μg/well; > 2.5E+9 = no binding
row,Substance,Binding Titer (M13/ml) 2G12
1,SIFDWPR (disulfide (positions not given here)) [4E10 PhD c7c-1],> 2.5E+9 M13/ml
2,HNSQNLDRWAII [2F5 PhD 12–1],> 2.5E+9 M13/ml
3,SEMDDKWAKMKI [2F5 PhD 12–2],> 2.5E+9 M13/ml
4,ERMLFEW (disulfide (positions not given here)) [4E10 PhD c7c-2],> 2.5E+9 M13/ml
5,QSYNWFDHTRWI [4E10 PhD 12–8],> 2.5E+9 M13/ml
6,SVSVGMKPSPRP [4E10 PhD 12–2],> 2.5E+9 M13/ml
7,YFFDRSS (disulfide) [4E10 PhD c7c-4],> 2.5E+9 M13/ml
8,TNFFELTTKLHR [4E10 PhD 12–10],> 2.5E+9 M13/ml
9,NWFDGTTTLWHR [4E10 PhD 12–4],> 2.5E+9 M13/ml
10,SHTLNFLDLTST [Z13 PhD 12–1],> 2.5E+9 M13/ml
11,NWFNLTQTLMPR [4E10 PhD 12–1],> 2.5E+9 M13/ml
12,ALCLGPR (disulfide (positions not given here)) [Z13 PhD c7c-1],> 2.5E+9 M13/ml
13,DMRSIFHDNPFN [4E10 PhD 12–6],> 2.5E+9 M13/ml
14,QHWNYFDLSEQQ [Z13 PhD 12–2],> 2.5E+9 M13/ml
15,NFWELSKYLHMA [4E10 PhD 12–9],> 2.5E+9 M13/ml
16,SEELDKWYNTLT [2F5 PhD 12–3],> 2.5E+9 M13/ml
17,MELDKWA (disulfide (positions not given here)) [2F5 PhD c7c-1],> 2.5E+9 M13/ml
18,LPNWFNLSSNLM [4E10 PhD 12–11],> 2.5E+9 M13/ml
19,NWFDRSHTLFHS [4E10 PhD 12–3],> 2.5E+9 M13/ml
20,GYWSDYWGMTTH [4E10 PhD 12–7],> 2.5E+9 M13/ml
21,DKWASFD (disulfide (positions not given here)) [2F5 PhD c7c-2],> 2.5E+9 M13/ml
22,TLDIFRN (disulfide (positions not given here)) [4E10 PhD c7c-3],> 2.5E+9 M13/ml
23,PFGFELW (disulfide (positions not given here)) [Z13 PhD c7c-2],> 2.5E+9 M13/ml
24,GPILANYSDITN [Z13 PhD 12–3],> 2.5E+9 M13/ml
